Measurements as given in patent US11091478B2 (Fochon Pharmaceuticals, Ltd., priority 2017, dated 2021).

System: DOHH2 cells
Test: Cell proliferation assay (MTS), DOHH2 cells, 120 h
Type: cell-based
Conditions: Homo sapiens, DOHH-2, 120 h
From the text: Cell Proliferation Assays
MTS testing kit was purchased from Promega. The RPMI-1640, Fetal bovine serum and Penicillin-Streptomycin were purchased from Gibco. Dimethyl sulfoxide (DMSO) was purchased from Sigma.
To investigate whether a compound is able to inhibit the activity of BCL-2 in cells, a mechanism-based assay using DOHH2 (DSMZ No.® ACC 47) and RS4;11 (ATCC® CRL-1873™) cell was developed. In this assay, inhibition of Bcl-2 was detected by the inhibition of DOHH2 cells proliferation. DOHH2 cells were cultured in culture flasks to 40-80% confluence in RPMI-1640 plus 10% fetal bovine serum. Cells were collected and plated onto 96-well plates at desired cell density (5000 cells/well). Plates were incubated overnight at 37° C., with 5% CO2 to adhere. Compounds were added to the plates, and the final compound concentrations were 10000, 3333, 1111, […], 124, 41, 14, 4.6 and 1.5 nM. Plates plated with DOHH2 or RS4;11 cells were placed at 37° C., with 5% CO2 for 120 h (DOHH2) or 72 h (RS4;11) respectively. 20 μl MTS/100 μl medium mixture solution were added to each well and incubate the plates for exactly 2 hours. The reaction was stopped by adding 25 μl 10% SDS per well. Measure absorbance at 490 nm and 650 nm (reference wavelength). IC50 was calculated using GraphPad Prism 5.0.
Select compounds prepared as described above were assayed according to the biological procedures described herein.

| Structure (SMILES) | IC50 [nM] |
| --- | --- |
| CC1(C)CCC(CN2CCN(c3ccc(C(=O)NS(=O)(=O)c4cc5c(c([N+](=O)[O-])c4)N[C@H](CN4CCC(C)(O)CC4)C5)c(Oc4cnc5[nH]ccc5c4)c3)CC2)=C(c2ccc(Cl)cc2)C1 [Example 1-4, (S)-2-((1H-pyrrolo[2,3-b]pyridin-5-yl)oxy)-4-(4-((4′-chloro-5,5-dimethyl-3,4,5,6-tetra-hydro-[1,1′-biphenyl]-2-yl)methyl)piperazin-1-yl)-N-((2-((4-hydroxy-4-methylpiperidin-1-yl)methyl)-7-nitroindolin-5-yl)sulfonyl) benzamide] | 308 |
| CC1(C)CCC(CN2CCN(c3ccc(C(=O)NS(=O)(=O)c4cc5c(c([N+](=O)[O-])c4)N[C@H](CO)C5)c(Oc4cnc5[nH]ccc5c4)c3)CC2)=C(c2ccc(Cl)cc2)C1 [Example 1-6, (S)-2-((1H-pyrrolo[2,3-b]pyridin-5-yl)oxy)-4-(4-((4′-chloro-5,5-dimethyl-3,4,5,6-tetra-hydro-[1,1′-biphenyl]-2-yl)methyl)piperazin-1-yl)-N-((2-(hydroxymethyl)-7-nitroindolin-5-yl)sulfonyl)benzamide] | 221 |
| CC1(C)CCC(CN2CCN(c3ccc(C(=O)NS(=O)(=O)c4cc5c(c([N+](=O)[O-])c4)N[C@H](CCO)C5)c(Oc4cnc5[nH]ccc5c4)c3)CC2)=C(c2ccc(Cl)cc2)C1 [Example 1-20, (S)-2-((1H-pyrrolo[2,3-b]pyridin-5-yl)oxy)-4-(4-((4′-chloro-5,5-dimethyl-3,4,5,6-tetra-hydro-[1,1′-biphenyl]-2-yl)methyl)piperazin-1-yl)-N-((2-(2-hydroxyethyl)-7-nitro-indolin-5-yl)sulfonyl)benzamide] | 170 |
| CC1(C)CCC(CN2CCN(c3ccc(C(=O)NS(=O)(=O)c4cc([N+](=O)[O-])c5nc(CN6CCOCC6)[nH]c5c4)c(Oc4cnc5[nH]ccc5c4)c3)CC2)=C(c2ccc(Cl)cc2)C1 [Example 1-27, 2-((1H-pyrrolo[2,3-b]pyridin-5-yl)oxy)-4-(4-((4′-chloro-5,5-dimethyl-3,4,5,6-tetrahydro-[1,1′-biphenyl]-2-yl)methyl)piperazin-1-yl)-N-((2-(morpholinomethyl)-4-nitro-1H-benzo[d]imidazol-6-yl)sulfonyl)benzamide] | 51 |
| CN1CCN(C[C@@H]2COc3cc(S(=O)(=O)NC(=O)c4ccc(N5CCN(CC6=C(c7ccc(Cl)cc7)CC(C)(C)CC6)CC5)cc4Oc4cnc5[nH]ccc5c4)cc([N+](=O)[O-])c3N2)CC1 [Example 2-4, (R)-2-((1H-pyrrolo[2,3-b]pyridin-5-yl)oxy)-4-(4-((4′-chloro-5,5-dimethyl-3,4,5,6-tetra-hydro-[1,1′-biphenyl]-2-yl)methyl)piperazin-1-yl)-N-((3-((4-methylpiperazin-1-yl)meth-yl)-5-nitro-3,4-dihydro-2H-benzo[b][1,4]oxazin-7-yl)sulfonyl)benzamide] | 139 |
| CC1(C)CCC(CN2CCN(c3ccc(C(=O)NS(=O)(=O)c4cc5c(c([N+](=O)[O-])c4)N[C@H](CCNC(=O)C4CCOCC4)CO5)c(Oc4cnc5[nH]ccc5c4)c3)CC2)=C(c2ccc(Cl)cc2)C1 [Example 2-57, (R)-N-(2-(7-(N-(2-((1H-pyrrolo[2,3-b]pyridin-5-yl)oxy)-4-(4-((4′-chloro-5,5-dimethyl-3,4,5,6-tetrahydro-[1,1′-biphenyl]-2-yl)meth-yl)piperazin-1-yl)benzoyl)sulfamoyl)-5-nitro-3,4-dihydro-2H-benzo[b][1,4]oxazin-3-yl)ethyl)tetrahydro-2H-pyran-4-carboxamide] | 392 |
| CC1(C)CCC(CN2CCN(c3ccc(C(=O)NS(=O)(=O)c4cc5c(c([N+](=O)[O-])c4)N[C@@H](CCNC(=O)N4CCOCC4)CO5)c(Oc4cnc5[nH]ccc5c4)c3)CC2)=C(c2ccc(Cl)cc2)C1 [Example 2-58, (S)-N-(2-(7-(N-(2-((1H-pyrrolo[2,3-b]pyridin-5-yl)oxy)-4-(4-((4′-chloro-5,5-dimethyl-3,4,5,6-tetrahydro-[1,1′-biphenyl]-2-yl)meth-yl)piperazin-1-yl)benzoyl)sulfamoyl)-5-nitro-3,4-dihydro-2H-benzo[b][1,4]oxazin-3-yl)ethyl)morpholine-4-carboxamide] | 868 |
| CC1(C)CCC(CN2CCN(c3ccc(C(=O)NS(=O)(=O)c4cc5c(c([N+](=O)[O-])c4)N[C@H](CCNC(=O)N4CCOCC4)CO5)c(Oc4cnc5[nH]ccc5c4)c3)CC2)=C(c2ccc(Cl)cc2)C1 [Example 2-59] | 730 |
| CC(=O)NCC[C@@H]1COc2cc(S(=O)(=O)NC(=O)c3ccc(N4CCN(CC5=C(c6ccc(Cl)cc6)CC(C)(C)CC5)CC4)cc3Oc3cnc4[nH]ccc4c3)cc([N+](=O)[O-])c2N1 [Example 2-62, (R)-2-((1H-pyrrolo[2,3-b]pyridin-5-yl)oxy)-N-((3-(2-acetamidoethyl)-5-nitro-3,4-di-hydro-2H-benzo[b][1,4]oxazin-7-yl)sulfonyl)-4-(4-((4′-chloro-5,5-dimethyl-3,4,5,6-tetra-hydro-[1,1′-biphenyl]-2-yl)methyl)piperazin-1-yl)benzamide] | 230 |
| CC1(C)CCC(CN2CCN(c3ccc(C(=O)NS(=O)(=O)c4cc5c(c([N+](=O)[O-])c4)N[C@@H](CNS(=O)(=O)N4CCOCC4)CO5)c(Oc4cnc5[nH]ccc5c4)c3)CC2)=C(c2ccc(Cl)cc2)C1 [Example 2-67, (S)-2-((1H-pyrrolo[2,3-b]pyriidn-5-yl)oxy)-4-(4-((4′-chloro-5,5-dimethyl-3,4,5,6-tetra-hydro-[1,1′-biphenyl]-2-yl)methyl)piperazin-1-yl)-N-((3-((morpholine-4-sulfonamido)methyl)-5-nitro-3,4-dihydro-2H-benzo[b] [1,4]oxazin-7-yl)sulfonyl)benzamide] | 1320 |
| CC1(C)CCC(CN2CCN(c3ccc(C(=O)NS(=O)(=O)c4cc5c(c([N+](=O)[O-])c4)N[C@@H](CN=S4(=O)CCCC4)CO5)c(Oc4cnc5[nH]ccc5c4)c3)CC2)=C(c2ccc(Cl)cc2)C1 [Example 2-76, (S)-2-((1H-pyrrolo[2,3-b]pyridin-5-yl)oxy)-4-(4-((4′-chloro-5,5-dimethyl-3,4,5,6-tetra-hydro-[1,1′-biphenyl]-2-yl)methyl)piperazin-1-yl)-N-((5-nitro-3-(((1-oxidotetrahydro-1λ^6-thiophen-1-ylidene)amino)methyl)-3,4-dihydro-2H-benzo[b][1,4]oxazin-7-yl)sulfo-nyl)benzamide] | 120 |
| C[C@H]1COCCN1C[C@H]1COc2cc(S(=O)(=O)NC(=O)c3ccc(N4CCN(CC5=C(c6ccc(Cl)cc6)CC(C)(C)CC5)CC4)cc3Oc3cnc4[nH]ccc4c3)cc([N+](=O)[O-])c2N1 [Example 2-85, 2-((1H-pyrrolo[2,3-b]pyridin-5-yl)oxy)-4-(4-((4′-chloro-5,5-dimethyl-3,4,5,6-tetra-hydro-[1,1′-biphenyl]-2-yl)methyl)piperazin-1-yl)-N-(((S)-3-(((S)-3-methylmorpholino)meth-yl)-5-nitro-3,4-dihydro-2H-benzo[b][1,4]oxazin-7-yl)sulfonyl)benzamide] | 434 |
| C[C@@H]1COCCN1C[C@H]1COc2cc(S(=O)(=O)NC(=O)c3ccc(N4CCN(CC5=C(c6ccc(Cl)cc6)CC(C)(C)CC5)CC4)cc3Oc3cnc4[nH]ccc4c3)cc([N+](=O)[O-])c2N1 [Example 2-86, 2-((1H-pyrrolo[2,3-b]pyridin-5-yl)oxy)-4-(4-((4′-chloro-5,5-dimethyl-3,4,5,6-tetra-hydro-[1,1′-biphenyl]-2-yl)methyl)piperazin-1-yl)-N-(((S)-3-(((R)-3-methylmorpholino)meth-yl)-5-nitro-3,4-dihydro-2H-benzo[b][1,4]oxazin-7-yl)sulfonyl)benzamide] | 648 |
| CN=S1(=O)CCN(C[C@H]2COc3cc(S(=O)(=O)NC(=O)c4ccc(N5CCN(CC6=C(c7ccc(Cl)cc7)CC(C)(C)CC6)CC5)cc4Oc4cnc5[nH]ccc5c4)cc([N+](=O)[O-])c3N2)CC1 [Example 2-122, (S)-2-((1H-pyrrolo[2,3-b]pyridin-5-yl)oxy)-4-(4-((4′-chloro-5,5-dimethyl-3,4,5,6-tetra-hydro-[1,1′-biphenyl]-2-yl)methyl)piperazin-1-yl)-N-((3-((1-(methylimino)-1-oxido-1λ^6-thiomorpholino)methyl)-5-nitro-3,4-di-hydro-2H-benzo[b][1,4]oxazin-7-yl)sulfonyl)benzamide] | 660 |
| CC1(C)CCC(CN2CCN(c3ccc(C(=O)NS(=O)(=O)c4cc5c(c([N+](=O)[O-])c4)N[C@@H](CN4CCS(=O)(=NC6CC6)CC4)CO5)c(Oc4cnc5[nH]ccc5c4)c3)CC2)=C(c2ccc(Cl)cc2)C1 [Example 2-124, (S)-2-((1H-pyrrolo[2,3-b]pyridin-5-yl)oxy)-4-(4-((4′-chloro-5,5-dimethyl-3,4,5,6-tetra-hydro-[1,1′-biphenyl]-2-yl)methyl)piperazin-1-yl)-N-((3-((1-(cyclopropylimino)-1-oxi-do-1λ^6-thiomorpholino)methyl)-5-nitro-3,4-dihydro-2H-benzo[b][1,4]oxazin-7-yl)sulfonyl)benzamide] | 649 |
